From patent US20170233345A1, “SUBSTITUTED QUINOLINE-4-CARBOXAMIDES AND USE THEREOF” (BAYER PHARMA AKTIENGESELLSCHAFT, priority 2014, published 2017)
Counter-ions that a name gives are not always drawn.

System: recombinant guanylate cyclase reporter cell line
Experiment: Effect on a recombinant guanylate cyclase reporter cell line
Type: cell-based
Details: in some cases mean values from individual determinations, read-out: MEC (minimum effective concentration)
Protocol: B-2. Effect on a Recombinant Guanylate Cyclase Reporter Cell Line
The cellular activity of the compounds according to the invention is determined using a recombinant guanylate cyclase reporter cell line, as described in F. Wunder et al., Anal. Biochem. 339, 104-112 (2005).
Representative MEC values (MEC=minimum effective concentration) for the compounds of the invention are shown in the table below (in some cases as mean values from individual determinations): […]

Q: COc1ccc(CC(C)(N)CNC(=O)c2ccnc3c(OCc4c(F)cccc4F)cccc23)cc1 (racemic) [Example 35, rac-N-[2-amino-3-(4-methoxyphenyl)-2-methylpropyl]-8-[(2,6-difluorobenzyl)oxy]quinoline-4-carboxamide trifluoroacetate] was tested. Which minimal effective concentration did it give?
A: 3 µM

Q: Which minimal effective concentration does the source give for CC(N)(CNC(=O)c1ccnc2c(OCc3c(F)cccc3F)cccc12)C1CC1 (racemic) [Example 42, rac-N-(2-Amino-2-cyclopropylpropyl)-8-[(2,6-difluorobenzyl)oxy]quinoline-4-carboxamide] here?
A: 10 µM

Q: Cc1cc(OCc2c(F)cccc2F)c2nccc(C(=O)NC(C)(CO)c3nnn(C(F)F)n3)c2c1 (racemic) [Example 49, rac-8-[(2,6-Difluorobenzyl)oxy]-N-{2-[2-(difluoromethyl)-2H-tetrazol-5-yl]-1-hydroxypropan-2-yl}-6-methylquinoline-4-carboxamide] was tested. Which minimal effective concentration did it give?
A: 2 µM

Q: COc1ccc(CC(C)(N)CNC(=O)c2ccnc3c(OCc4c(F)cccc4F)cccc23)cc1 (single isomer, unassigned; enantiomer a) [Example 36, ent-N-[2-Amino-3-(4-methoxyphenyl)-2-methylpropyl]-8-[(2,6-difluorobenzyl)oxy]quinoline-4-carboxamide (Enantiomer A)] was tested. Which minimal effective concentration did it give?
A: 3 µM

Q: Which minimal effective concentration does the source give for CC(N)(CCC(F)(F)F)CNC(=O)c1ccnc2c(OCc3c(F)cccc3F)cccc12 (single isomer, unassigned; enantiomer b) [Example 6, ent-N-(2-Amino-5,5,5-trifluoro-2-methylpentyl)-8-[(2,6-difluorobenzyl)oxy[quinoline-4-carboxamide (Enantiomer B)] here?
A: 0.3 µM

Q: How did the minimal effective concentration turn out when CC(N)(CNC(=O)c1ccnc2c(OCc3c(F)cccc3F)cccc12)CC(F)F (single isomer, unassigned; enantiomer b) [Example 7, ent-N-(2-Amino-4,4-difluoro-2-methylbutyl)-8-[(2,6-difluorobenzyl)oxy]quinoline-4-carboxamide (Enantiomer B)] was run?
A: 2 µM

Q: For COc1ccc(CC(C)(N)CNC(=O)c2ccnc3c(OCc4c(F)cccc4F)cccc23)cc1 (single isomer, unassigned; enantiomer b) [Example 37, ent-N-[2-Amino-3-(4-methoxyphenyl)-2-methylpropyl]-8-[(2,6-difluorobenzyl)oxy]quinoline-4-carboxamide (Enantiomer B)], which minimal effective concentration is on record?
A: 10 µM

Q: Which minimal effective concentration does the source give for CC(N)(CCC(F)(F)F)CNC(=O)c1cnc2c(OCc3c(F)cccc3F)cccc2c1 (single isomer, unassigned; enantiomer b) [Example 40, ent-N-(2-Amino-5,5,5-trifluoro-2-methylpentyl)-8-[(2,6-difluorobenzyl)oxy]quinoline-3-carboxamide (Enantiomer B)] here?
A: 10 µM

Q: With Cc1cc(C(=O)NCC(C)(N)CCC(F)(F)F)c2cccc(OCc3c(F)cccc3F)c2n1 (single isomer, unassigned; enantiomer b) [Example 43, ent-N-(2-Amino-5,5,5-trifluoro-2-methylpentyl)-8-[(2,6-difluorobenzyl)oxy]-2-methylquinoline-4-carboxamide (Enantiomer B)] as the compound, how does the minimal effective concentration read?
A: 1 µM

Q: Cc1cc(OCc2c(F)cccc2F)c2nccc(C(=O)NCC(C)(N)CCC(F)(F)F)c2c1 (single isomer, unassigned; enantiomer b) [Example 45, ent-N-(2-Amino-5,5,5-trifluoro-2-methylpentyl)-8-[(2,6-difluorobenzyl)oxy]-6-methylquinoline-4-carboxamide (Enantiomer B)] was tested. Which minimal effective concentration did it give?
A: 0.65 µM

Q: Which minimal effective concentration does the source give for CCC(C)(N)CNC(=O)c1cc(C)nc2c(OCc3c(F)cccc3F)cccc12 (single isomer, unassigned; enantiomer b) [Example 47, ent-N-(2-Amino-2-methylbutyl)-8-[(2,6-difluorobenzyl)oxy]-2-methylquinoline-4-carboxamide (Enantiomer B)] here?
A: 3 µM

Q: For CC(C)(O)C(CCC(F)(F)C(F)(F)F)NC(=O)c1ccnc2c(OCc3c(F)cccc3F)cccc12 (single isomer, unassigned; ent-8) [Example 32, ent-8-[(2,6-Difluorobenzyl)oxy]-N-(6,6,7,7,7-pentafluoro-2-hydroxy-2-methylheptan-3-yl)quinoline-4-carboxamide (Enantiomer A)], which minimal effective concentration is on record?
A: 2 µM

Q: With O=C(NC1(c2ccc(F)c(F)c2)CC1)c1ccnc2c(OCc3c(F)cccc3F)cccc12 [Example 1, 8-[(2,6-Difluorobenzyl)oxy]-N-[1-(3,4-difluorophenyl)cyclopropyl]quinoline-4-carboxamide] as the compound, how does the minimal effective concentration read?
A: 3 µM

Q: How did the minimal effective concentration turn out when O=C(Nc1ccnc2ccc(F)cc12)c1ccnc2c(OCc3c(F)cccc3F)cccc12 [Example 2, 8-[(2,6-Difluorobenzyl)oxy]-N-(6-fluoroquinolin-4-yl)quinoline-4-carboxamide] was run?
A: 10 µM

Q: How did the minimal effective concentration turn out when CCCC[C@H](C)NC(=O)c1ccnc2c(OCc3c(F)cccc3F)cccc12 [Example 3, 8-[(2,6-Difluorobenzyl)oxy]-N-[(2S)-hexan-2-yl]quinoline-4-carboxamide] was run?
A: 1 µM

Q: Which minimal effective concentration does the source give for CCCC[C@H](CO)NC(=O)c1ccnc2c(OCc3c(F)cccc3F)cccc12 [Example 4, 8-[(2,6-Difluorobenzyl)oxy]-N-[(2R)-1-hydroxyhexan-2-yl]quinoline-4-carboxamide] here?
A: 3 µM

Q: CC[C@](C)(N)CNC(=O)c1ccnc2c(OCc3c(F)cccc3F)cccc12 [Example 5, N-[(2S)-2-Amino-2-methylbutyl]-8-[(2,6-difluorobenzyl)oxy]quinoline-4-carboxamide] was tested. Which minimal effective concentration did it give?
A: 3 µM

Q: Which minimal effective concentration does the source give for O=C(NCCC1(O)CCCC1)c1ccnc2c(OCc3c(F)cccc3F)cccc12 [Example 8, 8-[(2,6-Difluorobenzyl)oxy]-N-[2-(1-hydroxycyclopentyl)ethyl]quinoline-4-carboxamide] here?
A: 3 µM

Q: For O=C(NC1c2ccccc2CC1O)c1ccnc2c(OCc3c(F)cccc3F)cccc12 (stereo not shown) [Example 9], which minimal effective concentration is on record?
A: 3 µM

Q: How did the minimal effective concentration turn out when O=C(N[C@@H](CO)C(=O)Nc1ccc2ccccc2c1)c1ccnc2c(OCc3c(F)cccc3F)cccc12 [Example 10] was run?
A: 10 µM

Q: How did the minimal effective concentration turn out when CCC(N)(CC)CNC(=O)c1ccnc2c(OCc3c(F)cccc3F)cccc12 [Example 11] was run?
A: 3 µM

Q: Which minimal effective concentration does the source give for CC1(C)CC(NC(=O)c2ccnc3c(OCc4c(F)cccc4F)cccc23)CC(C)(C)N1 [Example 12] here?
A: 10 µM

Q: O=C(NC1CC1c1ccccc1)c1ccnc2c(OCc3c(F)cccc3F)cccc12 (stereo not shown) [Example 13] was tested. Which minimal effective concentration did it give?
A: 10 µM

Q: For CN(C)CCNC(=O)c1ccnc2c(OCc3c(F)cccc3F)cccc12 [Example 14], which minimal effective concentration is on record?
A: 10 µM

Q: With O=C(NCc1ccccc1-c1cccnc1)c1ccnc2c(OCc3c(F)cccc3F)cccc12 [Example 15] as the compound, how does the minimal effective concentration read?
A: 10 µM

Q: How did the minimal effective concentration turn out when O=C(NCCN1CCOCC1)c1ccnc2c(OCc3c(F)cccc3F)cccc12 [Example 16] was run?
A: 10 µM

Q: How did the minimal effective concentration turn out when Cc1nn(Cc2ccc(F)cc2)c(C)c1NC(=O)c1ccnc2c(OCc3c(F)cccc3F)cccc12 [Example 17] was run?
A: 10 µM

Q: Which minimal effective concentration does the source give for CC(NC(=O)c1ccnc2c(OCc3c(F)cccc3F)cccc12)c1nc(C(F)(F)F)no1 (stereo not shown) [Example 18] here?
A: 3 µM

Q: How did the minimal effective concentration turn out when Cc1[nH]nc(C(F)(F)F)c1NC(=O)c1ccnc2c(OCc3c(F)cccc3F)cccc12 [Example 19] was run?
A: 3 µM

Q: How did the minimal effective concentration turn out when O=C(NCc1ccc(Cl)nc1)c1ccnc2c(OCc3c(F)cccc3F)cccc12 [Example 20] was run?
A: 3 µM

Q: For CC(COCC(F)(F)F)NC(=O)c1ccnc2c(OCc3c(F)cccc3F)cccc12 (stereo not shown) [Example 21], which minimal effective concentration is on record?
A: 3 µM

Q: For O=C(NCC1(O)CC1)c1ccnc2c(OCc3c(F)cccc3F)cccc12 [Example 22], which minimal effective concentration is on record?
A: 3 µM

Q: Which minimal effective concentration does the source give for O=C(NCCN(CC(F)F)C1CC1)c1ccnc2c(OCc3c(F)cccc3F)cccc12 [Example 23] here?
A: 3 µM

Q: O=C(N[C@H]1CCOC1=O)c1ccnc2c(OCc3c(F)cccc3F)cccc12 [Example 24] was tested. Which minimal effective concentration did it give?
A: 10 µM

Q: For CCC(CO)(CO)NC(=O)c1ccnc2c(OCc3c(F)cccc3F)cccc12 [Example 25], which minimal effective concentration is on record?
A: 10 µM

Q: For CN1CCC(NC(=O)c2ccnc3c(OCc4c(F)cccc4F)cccc23)c2ccccc21 (stereo not shown) [Example 27], which minimal effective concentration is on record?
A: 1 µM

Q: With O=C(NCc1ccccc1-n1ccnc1)c1ccnc2c(OCc3c(F)cccc3F)cccc12 [Example 28] as the compound, how does the minimal effective concentration read?
A: 3 µM

Q: O=C(NC1CCCc2ccccc21)c1ccnc2c(OCc3c(F)cccc3F)cccc12 (stereo not shown) [Example 29] was tested. Which minimal effective concentration did it give?
A: 0.3 µM

Q: O=C(Nc1cnn(CCO)c1)c1ccnc2c(OCc3c(F)cccc3F)cccc12 [Example 30] was tested. Which minimal effective concentration did it give?
A: 10 µM

Q: For N#CC(NC(=O)c1ccnc2c(OCc3c(F)cccc3F)cccc12)c1ccc(Cl)cc1 (stereo not shown) [Example 31], which minimal effective concentration is on record?
A: 3 µM

Q: With O=C(NC(CO)c1ccc(F)cc1)c1ccnc2c(OCc3c(F)cccc3F)cccc12 (stereo not shown) [Example 33] as the compound, how does the minimal effective concentration read?
A: 2 µM

Q: O=C(NC1CCOc2ncccc21)c1ccnc2c(OCc3c(F)cccc3F)cccc12 (stereo not shown) [Example 34] was tested. Which minimal effective concentration did it give?
A: 1 µM

Q: For CCCC[C@H](CO)NC(=O)c1cnc2c(OCc3c(F)cccc3F)cccc2c1 [Example 38, 8-[(2,6-Difluorobenzyl)oxy]-N-[(2R)-1-hydroxyhexan-2-yl]quinoline-3-carboxamide], which minimal effective concentration is on record?
A: 3 µM

Q: Which minimal effective concentration does the source give for O=C(NC1(c2ccc(F)cc2)CC1)c1cnc2c(OCc3c(F)cccc3F)cccc2c1 [Example 39, 8-[(2,6-Difluorobenzyl)oxy]-N-[1-(4-fluorophenyl)cyclopropyl]quinoline-3-carboxamide] here?
A: 1 µM

Q: CC[C@](C)(N)CNC(=O)c1cnc2c(OCc3c(F)cccc3F)cccc2c1 [Example 41, N-[(2S)-2-Amino-2-methylbutyl]-8-[(2,6-difluorobenzyl)oxy]quinoline-3-carboxamide] was tested. Which minimal effective concentration did it give?
A: 10 µM

Q: With N#C[C@H]1CC[C@H](CNC(=O)c2ccnc3c(OCc4c(F)cccc4F)cccc23)CC1 [Example 44] as the compound, how does the minimal effective concentration read?
A: 10 µM
